According to patent publication US20030096850A1, “Treating infections by administration of oxazolidinones” (priority 2001, published 2003):

Columns and labels:
[1] = Human who has acne treated with an Oxazolidinone ointment; type: in vivo; conditions: person, ointment 30 mg/ml twice daily on skin
[2] = system: Staphylococcal aureus; experiment: Human treated with Oxazolidinone cream or ointment prior to surgery; type: in vivo; conditions: cream or ointment 10-30 mg/ml, evening prior to and morning of surgery
Method: (§1) A 75 kilo […] is being prepared for surgery; the types of surgeries include open-heart surgery, joint replacement, back surgery, or any type of invasive surgery. A cream or ointment preparation of 10-30 mg/ml (S)-N-[[3-[3-fluoro-4-(4-morpholinyl)phenyl]-2-oxo-5-oxazolidinyl]methyl]acetamide is liberally spread by a nurse wearing gloves upon the intended site of the incision and an area of 8 inches around the margins of the intended incision site the evening prior to surgery and the first thing in the morning of the surgery. The area of application is kept free of clothing until the cream or ointment is absorbed.

[3] = system: Staphylococcal epidermidis; experiment: as above; type: in vivo; conditions: cream or ointment 10-30 mg/ml, evening prior to and morning of surgery
Method: as §1

[4] = Human who has an ear infection (otitis media) treated with Oxazolidinone solution; type: in vivo; conditions: child, ten drops of 10 mg/ml solution into the ear twice daily, before 10 days
Method: Ten drops of a solution containing 10 mg/ml of (S)-N-[[3-[3-fluoro-4-(4-morpholinyl)phenyl]-2-oxo-5-oxazolidinyl]methyl]acetamide is dropped into the ear twice daily for ten days with an eye dropper and is immediately followed by closing the outer ear canal with cotton.

[5] = Treatment of diabetic foot with cream or ointment; type: in vivo, human; conditions: cream or ointment 10-30 mg/ml three times daily for 10-14 days
Method: A 70 kilo […] with a history of diabetes and infected foot ulcerations, also known as diabetic foot, is treated with a cream or ointment preparation of 10-30 mg/ml (S)-N-[[3-[3-fluoro-4-(4-morpholinyl)phenyl]-2-oxo-5-oxazolidinyl]methyl]acetamide. The cream or ointment is liberally spread over the exposed surface of the ulcerations and adjacent whole skin three times daily for 10-14 days.

| Structure (SMILES) | reddened and swollen pustules after administration [1] | skin commensal pathogen Staphylococcal aureus throughout the full thickness of the skin at the incision site [2] | skin commensal pathogen Staphylococcal epidermidis throughout the full thickness of the skin at the incision site [3] | fever and ear pain [4] | tissue destruction and repair in the ulcerated area [5] |
| --- | --- | --- | --- | --- | --- |
| CC(=O)NC[C@H]1CN(c2ccc(N3CCN(C(=O)CO)CC3)c(F)c2)C(=O)O1 [Example 1, (S)-N-[[3-[3-Fluoro-4-[4-(hydroxyacetyl)-1-piperazinyl]-phenyl]-2-oxo-5-oxazolidinyl]methyl]acetamide] | greatly reduced |  |  |  |  |
| CC(=O)NC[C@H]1CN(c2ccc(N3CCOCC3)c(F)c2)C(=O)O1 [Example 2, (S)-N-[[3-[3-Fluoro-4-(4-morpholinyl)phenyl]-2-oxo-5-oxazolidinyl]methyl]acetamide] |  | killed or are prevented from growing | killed or are prevented from growing | the fever is down and the pain is gone | tissue destruction in the ulcerated area has visibly ceased and tissue repair has begun |
